Data reported in US20240049713A1, “METHOD FOR CONTROLLING HERBICIDE-RESISTANT WEEDS” (SUMITOMO CHEMICAL COMPANY, LIMITED, priority 2020, published 2024).
Where two headings read alike, the source gives them in different places.

Columns and labels:
[1] = tested on: PPO inhibitor-resistant weeds; test: plastic pot tests as Examples 1 to 72 and variants (Examples 73 to 3456)
Experimental: On the same day, compound X is applied to the surface of soil so that the application rate of the compound X is 10, 20, 40 or 80 g/ha and the spray volume is 200 L/ha. The plastic pot is then placed in a greenhouse, and at 7 days after the application, soybeans are seeded, and further at 14 days after seeding the soybeans, the effect on the weeds and crop injuries on the soybeans are investigated.
On the same day, compound X is applied to the surface of soil so that the application rate of the compound X is 10, 20, 40 or 80 g/ha and the spray volume is 200 L/ha. The soybeans are then cultivated in a greenhouse, and at 21 days after seeding, the effect on the weeds and crop injuries on the soybeans are investigated.
The soybeans are then cultivated in a greenhouse, and at 21 days after seeding, compound X is foliar-treated so that the application rate of the compound X is 10, 20, 40 or 80 g/ha and the spray liquid amount is 200 L/ha. Further, the soybeans are cultivated in the greenhouse, and at 14 days after the application of compound X, the effect on the weeds and crop injuries on the soybeans are investigated.

[2] = tested on: waterhemp (Amaranthus tuberculatus=Amaranthus rudis=Amaranthus tamariscinus) having Gly210 deficiency in PPO2; type: in vivo; details: rating 0 to 100, sprayed at plant height 20 cm, 200 L/ha, 1% (w/v) Agri-Dex, evaluated after 14 days in greenhouse
[3] = applications as in Examples 1 to 72, compound X replaced, 10 to 80 g/ha
[4] = as Examples 1 to 216, RoundupPowerMax 32 fluid ounce/acre and XtendiMax 1 pint/acre further added

Compound	effect on the weeds [1, 3]	effect on the weeds [1, 4]	herbicidal effect ([2]; 20 g/ha)	herbicidal effect ([2]; 40 g/ha)
Cn1c(C(F)(F)F)cc(=O)n(-c2cc(OC3(C(=O)OCC(=O)O)CC3)c(Cl)cc2F)c1=O [Compound Z]	effective control effect	effective control effect	–	–
COC(=O)CCNC(=O)C(C)Sc1cc(-n2c(=O)cc(C(F)(F)F)n(C)c2=O)c(F)cc1Cl (stereo not drawn) [Tiafenacil, tiafenacil, reference compound]	–	–	50	70
CCOC(=O)COC(=O)C1(Oc2cc(-n3c(=O)cc(C(F)(F)F)n(C)c3=O)c(F)cc2Cl)CC1 [Compound X]	–	effective control effect	99	99
COC(=O)COC(=O)C1(Oc2cc(-n3c(=O)cc(C(F)(F)F)n(C)c3=O)c(F)cc2Cl)CC1 [Compound Y]	effective control effect	effective control effect	–	–
